Laboratory results published in US8637484B2, “Modulation of growth hormone receptor expression and insulin-like growth factor expression” (Antisense Therapeutic Limited, priority 2003, dated 2014).
In the oligonucleotide strings, read from the 5' end, every base follows the letter of its sugar. An asterisk marks phosphorothioate; unmarked linkages are phosphodiester. Other units and linkages are bracketed, terminal groups are in braces. A string of capitals states the bases alone. e = 2'-O-(2-methoxyethyl) (MOE); [5mC] = 5-methylcytosine; d = 2'-deoxy (DNA)

System: mouse growth hormone receptor mRNA
Test: Inhibition of mouse growth hormone receptor mRNA levels in b.END cells, quantitative real-time PCR
Format: cell-based
Design: % INHIB: concentration or dose not given beside the values
Conditions: mouse growth hormone receptor mRNA, b.END cells, averages from three experiments
Protocol: The mouse brain endothelial cell line b.END was obtained from Dr. Werner Risau at the Max Plank Instititute (Bad Nauheim, Germany). b.END cells were routinely cultured in DMEM, high glucose (Gibco/Life Technologies, Gaithersburg, Md.) supplemented with 10% fetal calf serum (Gibco/Life Technologies, Gaithersburg, Md.). Cells were routinely passaged by trypsinization and dilution when they reached 90% confluence. Cells were seeded into 96-well plates (Falcon-Primaria #3872) at a density of 3000 cells/well for use in RT-PCR analysis.
When cells reached 65-75% confluency, they were treated with oligonucleotide. For cells grown in 96-well plates, wells were washed once with 100 μL OPTI-MEM™-1 reduced-serum medium (Invitrogen Corporation, Carlsbad, Calif.) and then treated with 130 μL of OPTI-MEM™-1 containing 3.75 μg/mL LIPOFECTIN™ (Invitrogen Corporation, Carlsbad, Calif.) and the desired concentration of oligonucleotide. Cells are treated and data are obtained in triplicate. After 4-7 hours of treatment at 37° C., the medium was replaced with fresh medium. Cells were harvested 16-24 hours after oligonucleotide treatment.
Total RNA was isolated using an RNEASY 96™ kit and buffers purchased from Qiagen Inc. (Valencia, Calif.) following the manufacturer's recommended procedures. Briefly, for cells grown on 96-well plates, growth medium was removed from the cells and each well was washed with 200 μL cold PBS. 150 μL Buffer RLT was added to each well and the plate vigorously agitated for 20 seconds. 150 μL of 70% ethanol was then added to each well and the contents mixed by pipetting three times up and down. The samples were then transferred to the RNEASY 96™ well plate attached to a QIAVAC™ manifold fitted with a waste collection tray and attached to a vacuum source. Vacuum was applied for 1 minute. 500 μL of Buffer RW1 was added to each well of the RNEASY 96™ plate and incubated for 15 minutes and the vacuum was again applied for 1 minute. An additional 500 μL of Buffer RW1 was added to each well of the RNEASY 96™ plate and the vacuum was applied for 2 minutes. 1 mL of Buffer RPE was then added to each well of the RNEASY 96™ plate and the vacuum applied for a period of 90 seconds. The Buffer RPE wash was then repeated and the vacuum was applied for an additional 3 minutes. The plate was then removed from the QIAVAC™ manifold and blotted dry on paper towels. The plate was then re-attached to the QIAVAC™ manifold fitted with a collection tube rack containing 1.2 mL collection tubes. RNA was then eluted by pipetting 140 μL of RNAse free water into each well, incubating 1 minute, and then applying the vacuum for 3 minutes.
Quantitation of growth hormone receptor mRNA levels was accomplished by real-time quantitative PCR using the ABI PRISM™ 7600, 7700, or 7900 Sequence Detection System (PE-Applied Biosystems, Foster City, Calif.) according to manufacturer's instructions. This is a closed-tube, non-gel-based, fluorescence detection system which allows high-throughput quantitation of polymerase chain reaction (PCR) products in real-time. As opposed to standard PCR in which amplification products are quantitated after the PCR is completed, products in real-time quantitative PCR are quantitated as they accumulate. This is accomplished by including in the PCR reaction an oligonucleotide probe that anneals specifically between the forward and reverse PCR primers, and contains two fluorescent dyes. A reporter dye (e.g., FAM or JOE, obtained from either PE-Applied Biosystems, Foster City, Calif., Operon Technologies Inc., Alameda, Calif. or Integrated DNA Technologies Inc., Coralville, Iowa) is attached to the 5′ end of the probe and a quencher dye (e.g., TAMRA, obtained from either PE-Applied Biosystems, Foster City, Calif., Operon Technologies Inc., Alameda, Calif. or Integrated DNA Technologies Inc., Coralville, Iowa) is attached to the 3′ end of the probe. […]

Substance | % INHIB [%]
227443 (antisense eT*eG*e[5mC]*eT*eT*dG*dG*d[5mC]*dA*dG*d[5mC]*dT*d[5mC]*dG*dT*eG*eG*eG*eT*eT) [compound 227443] | 0
227444 (antisense eA*eT*eG*eG*e[5mC]*dT*dG*d[5mC]*dG*d[5mC]*d[5mC]*dT*dG*d[5mC]*dT*eT*eG*eG*e[5mC]*eA) [compound 227444] | 53
227445 (antisense eT*eA*e[5mC]*e[5mC]*eT*dG*dA*dG*dA*d[5mC]*d[5mC]*dT*d[5mC]*dG*dG*eA*eG*eT*eT*eT) [compound 227445] | 69
227446 (antisense eA*e[5mC]*eA*eA*eA*dG*dA*dT*d[5mC]*d[5mC]*dA*dT*dA*d[5mC]*d[5mC]*eT*eG*eA*eG*eA) [compound 227446] | 87
227447 (antisense eG*e[5mC]*eT*eG*eG*dT*dG*dT*dA*dG*d[5mC]*d[5mC]*dT*d[5mC]*dA*e[5mC]*eT*eT*e[5mC]*e[5mC]) [compound 227447] | 77
227448 (antisense eT*eT*eT*eG*e[5mC]*d[5mC]*dA*dA*dG*dA*dG*dT*dA*dG*d[5mC]*eT*eG*eG*eT*eG) [compound 227448] | 60
227449 (antisense eA*e[5mC]*eG*eA*e[5mC]*dA*d[5mC]*dT*dT*dG*dG*dT*dG*dA*dA*eT*e[5mC]*eG*eA*eG) [compound 227449] | 69
227450 (antisense eT*eG*eG*e[5mC]*eT*dT*dT*d[5mC]*d[5mC]*d[5mC]*dT*dT*dT*dT*dA*eG*e[5mC]*eA*eT*eA) [compound 227450] | 71
227451 (antisense eA*eT*eG*eA*eG*d[5mC]*dA*dA*dT*dT*d[5mC]*dT*dT*dG*d[5mC]*eA*eG*e[5mC]*eT*eT) [compound 227451] | 49
227454 (antisense eA*eG*eT*eT*eG*dA*dA*dG*dT*dA*dA*d[5mC]*dA*dG*d[5mC]*eT*eG*eT*eT*eT) [compound 227454] | 69
227455 (antisense eA*eG*eT*eA*eG*dG*dG*dT*dA*dT*d[5mC]*d[5mC]*dA*dA*dA*eT*eG*eG*eA*eG) [compound 227455] | 43
227456 (antisense eG*eT*e[5mC]*e[5mC]*eA*dG*dT*dT*dG*dA*dG*dG*d[5mC]*d[5mC]*dA*eA*eT*eG*eG*eG) [compound 227456] | 97
227457 (antisense eG*eA*eA*eT*eT*dA*dT*d[5mC]*d[5mC]*dA*dT*d[5mC]*d[5mC]*d[5mC]*dT*eT*e[5mC]*eA*eG*eA) [compound 227457] | 67
227458 (antisense eG*eT*eA*e[5mC]*eT*dG*dA*dA*dT*dT*dT*d[5mC]*dA*dT*dA*e[5mC]*eT*e[5mC]*e[5mC]*eA) [compound 227458] | 75
227459 (antisense e[5mC]*eT*eG*eA*eA*d[5mC]*dT*d[5mC]*dG*d[5mC]*dT*dG*dT*dA*d[5mC]*eT*eT*eT*eT*e[5mC]) [compound 227459] | 60
227460 (antisense eA*eA*e[5mC]*eT*eG*dG*dA*dT*dA*dT*d[5mC]*dT*dT*d[5mC]*dT*eT*e[5mC]*eA*e[5mC]*eA) [compound 227460] | 43
227461 (antisense eT*eG*e[5mC]*eT*eA*d[5mC]*dT*d[5mC]*d[5mC]*dA*dA*dA*dT*dA*dT*eT*e[5mC]*e[5mC]*eA*eA) [compound 227461] | 75
227462 (antisense eG*e[5mC]*eT*eT*eT*dG*dA*dA*dA*dA*dT*dA*dT*dA*dA*e[5mC]*eT*eA*e[5mC]*eA) [compound 227462] | 31
227463 (antisense eA*eT*e[5mC]*eA*eG*d[5mC]*dA*dT*d[5mC]*dT*dT*dA*dA*dT*d[5mC]*e[5mC]*eT*eT*eT*eG) [compound 227463] | 39
227465 (antisense eT*eG*eA*eG*eA*dA*dG*dA*dT*d[5mC]*dT*dG*dG*dA*dT*e[5mC]*eA*eA*eT*e[5mC]) [compound 227465] | 51

Substance | % INHIB [%]
227466 (antisense eT*eT*eG*eT*eA*dG*dT*dT*dA*dT*d[5mC]*dA*dT*dG*dA*eA*eT*eG*e[5mC]*e[5mC]) [compound 227466] | 50
227467 (antisense e[5mC]*eA*eT*e[5mC]*eA*dT*dT*dG*dT*dA*dG*dA*dA*dG*dT*e[5mC]*eG*eG*eG*eT) [compound 227467] | 33
227470 (antisense e[5mC]*eT*e[5mC]*e[5mC]*eA*dA*dG*dG*dA*dT*dA*d[5mC]*d[5mC]*dA*dG*e[5mC]*eT*eG*eA*eT) [compound 227470] | 82
227471 (antisense eA*eG*eG*e[5mC]*eA*d[5mC]*dA*dA*dG*dA*dG*dA*dT*d[5mC]*dA*eG*e[5mC]*eT*eT*e[5mC]) [compound 227471] | 52
227472 (antisense eA*eG*eA*eG*e[5mC]*d[5mC]*dA*dA*dG*dG*dG*dA*dA*dG*d[5mC]*eA*eT*e[5mC]*eA*eT) [compound 227472] | 42
227473 (antisense eA*eA*eG*eT*e[5mC]*dA*dA*dT*dG*dT*dT*dT*dG*d[5mC]*d[5mC]*eA*eG*eT*eG*eA) [compound 227473] | 71
227474 (antisense eT*eG*eT*e[5mC]*eG*d[5mC]*dT*dT*dA*d[5mC]*dT*dT*dG*dG*dG*e[5mC]*eA*eT*eA*eA) [compound 227474] | 68
227476 (antisense eG*eT*eA*eA*eT*dT*dT*dT*d[5mC]*dT*dT*dG*dG*d[5mC]*dA*eG*eG*eG*e[5mC]*eG) [compound 227476] | 41
227477 (antisense e[5mC]*eA*e[5mC]*eT*eG*dT*dT*d[5mC]*dA*dT*dG*d[5mC]*dT*dG*dT*eA*eA*eT*eT*eT) [compound 227477] | 61
227478 (antisense eT*eT*eT*eT*eT*dG*dG*d[5mC]*dA*dT*d[5mC]*dT*dG*dA*d[5mC]*eT*e[5mC]*eA*e[5mC]*eA) [compound 227478] | 68
227479 (antisense eA*eT*eG*eT*e[5mC]*d[5mC]*dT*d[5mC]*dT*dT*dG*dG*dT*dT*dA*eA*eA*eG*e[5mC]*eT) [compound 227479] | 59
227485 (antisense e[5mC]*eG*eT*eG*eG*dT*dG*dT*dA*dG*dT*d[5mC]*dT*dG*dG*eG*eA*e[5mC]*eA*eG) [compound 227485] | 45
227486 (antisense e[5mC]*eG*eG*eT*eG*dT*dG*dA*dA*d[5mC]*d[5mC]*dG*dT*dG*dG*eT*eG*eT*eA*eG) [compound 227486] | 39
227487 (antisense eT*e[5mC]*eA*eG*eG*d[5mC]*dA*dA*dA*dG*dG*d[5mC]*dA*dA*dA*eG*e[5mC]*eA*eG*eT) [compound 227487] | 44
227491 (antisense eT*eA*eG*eG*eA*dA*dA*dG*dG*d[5mC]*dT*dA*d[5mC]*dT*dG*e[5mC]*eA*eT*eG*eA) [compound 227491] | 65
227492 (antisense eT*eA*eA*eA*eA*d[5mC]*dA*dT*dA*dG*dT*dT*dT*dT*dG*eG*eT*eT*eT*eA) [compound 227492] | 7
227493 (antisense eT*e[5mC]*e[5mC]*e[5mC]*eA*dA*d[5mC]*dA*d[5mC]*dA*dG*dA*dT*dT*dT*eA*eA*eA*eA*e[5mC]) [compound 227493] | 51
227494 (antisense e[5mC]*eA*eA*eA*eA*dG*d[5mC]*d[5mC]*dA*d[5mC]*d[5mC]*dT*dG*dA*dT*eT*eG*eT*eT*eT) [compound 227494] | 56
227495 (antisense eT*e[5mC]*e[5mC]*eT*eG*dA*dA*d[5mC]*dT*dG*d[5mC]*dA*dA*dA*dA*eG*e[5mC]*e[5mC]*eA*e[5mC]) [compound 227495] | 47
